Some test systems named below: SF-268 CNS; COLO 205 colon; HL-60(TB) leukemia; RPMI-8226 leukemia; T-47D breast; K-562 leukemia; ACHN renal; OVCAR-8 ovarian.
Common to all, as to assay: inhibition of tumour cell growth, NCI panel, 48 h

Drawing on PubChem BioAssay (NCI), this text covers GI50 and TGI for 11 compounds.

Structures are written as SMILES.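 Compound exposure: 48 hours, 5 concentrations, 96-well plates. GI50 marks 50% less growth. TGI: total growth inhibition.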 Bounds are passed on as bounds.

On to `COc1cccc2c1nc1cccc(OC)c1[n+]2[O-]`, for which the GI50 in the test with SF-268 CNS was 2.65 µM; in the test on COLO 205 colon, 10.9 µM; with HL-60(TB) leukemia it was 2.52 µM; with RPMI-8226 leukemia, 7.69 µM; in the test on T-47D breast, 1.7 µM; with K-562 leukemia, 11.5 µM. Besides, the GI50 was 2.2 µM in the test on ACHN renal and 4.4 µM with OVCAR-8 ovarian. Besides, the TGI in the test on SF-268 CNS stood at 13.8 µM; in the test on COLO 205 colon it was 26.7 µM; in the test on HL-60(TB) leukemia, 5.94 µM; in the test on RPMI-8226 leukemia, 31.4 µM; in the test on T-47D breast, 9.26 µM; in the test on K-562 leukemia it was 26.6 µM. In addition, the figures for the TGI in the test on ACHN renal and with OVCAR-8 ovarian were 9.96 µM and 25 µM, respectively.

For `C/C(=C1/N=C(c2ccccc2)OC1=O)c1ccc(C)cc1`, the TGI in the test on SF-268 CNS, with COLO 205 colon, in the test with HL-60(TB) leukemia, in the test with RPMI-8226 leukemia, with T-47D breast and in the test on K-562 leukemia was > 100 µM in each case. Further, the TGI with ACHN renal and in the test on OVCAR-8 ovarian was > 100 µM each time.

Consider `COc1cc(CNc2nc3cc(N)cc(N)c3nc2-c2ccccc2)cc(OC)c1OC`, for which the GI50 was 2.93 µM with SF-268 CNS; 3.77 µM with COLO 205 colon; 1.25 µM with HL-60(TB) leukemia; 0.697 µM in the test on RPMI-8226 leukemia; 1.76 µM with K-562 leukemia; 5.33 µM in the test on ACHN renal. Moreover, the GI50 with OVCAR-8 ovarian was 7 µM. Also, the TGI is 14 µM with SF-268 CNS; > 50 µM in the test with COLO 205 colon; > 50 µM in the test with HL-60(TB) leukemia; 3 µM in the test on RPMI-8226 leukemia; > 50 µM with K-562 leukemia; 11.2 µM in the test on ACHN renal. The compound further yielded a TGI in the test with OVCAR-8 ovarian of 14.8 µM.

Turning to `NC(=O)c1ccc2nc(-c3ccc(C4(N)CCC4)cc3)c(-c3ccccc3)n2n1`, the GI50 is 13.1 µM in the test with SF-268 CNS; 0.976 µM in the test on COLO 205 colon; 11.5 µM with HL-60(TB) leukemia; 10.9 µM with RPMI-8226 leukemia; 0.0186 µM with T-47D breast; 13.7 µM with K-562 leukemia. Also, the results for the GI50 with ACHN renal and in the test on OVCAR-8 ovarian were 5.97 µM and 17.4 µM, respectively. Moreover, the TGI in the test on SF-268 CNS came to 30.1 µM; in the test on COLO 205 colon it was 19 µM; with HL-60(TB) leukemia, 30.2 µM; in the test with RPMI-8226 leukemia, 30.9 µM; with T-47D breast, 15.8 µM; with K-562 leukemia, 36.9 µM. Also, the TGI in the test with ACHN renal was found to be 20.8 µM; in the test on OVCAR-8 ovarian, 39.3 µM.

Consider `O=C(Nc1ccc(Cl)cc1F)c1cc(F)ccc1O`, for which the GI50 in the test on SF-268 CNS is 0.854 µM; with HL-60(TB) leukemia, 0.622 µM; in the test with RPMI-8226 leukemia, 0.449 µM; in the test on T-47D breast, 0.904 µM; in the test with K-562 leukemia, 0.609 µM; in the test with ACHN renal it was 0.83 µM. Further, in the test on OVCAR-8 ovarian, the GI50 is 2.4 µM. For the same compound, the TGI in the test on SF-268 CNS was 12.1 µM; with HL-60(TB) leukemia it was 3.45 µM; in the test with RPMI-8226 leukemia it was 3.99 µM; with T-47D breast it was > 23.5 µM; with K-562 leukemia it was > 100 µM; with ACHN renal, 8.27 µM. Moreover, the TGI with OVCAR-8 ovarian was > 70.8 µM.

As to `CN1C(=O)N(C)C2C1NN=c1s/c(=C\c3c[nH]c4ccccc34)c(=O)n12` (stereo not given), the GI50 with SF-268 CNS was 0.588 µM; with COLO 205 colon, 0.0363 µM; in the test on HL-60(TB) leukemia, 0.0305 µM; in the test with RPMI-8226 leukemia, 0.0346 µM; in the test with K-562 leukemia, 0.0312 µM; in the test with ACHN renal it was 0.0754 µM. The GI50 in the test on OVCAR-8 ovarian is 0.0547 µM. For the same compound, the TGI in the test on SF-268 CNS was > 100 µM; in the test with COLO 205 colon, 0.564 µM; in the test with HL-60(TB) leukemia, 0.858 µM; in the test on RPMI-8226 leukemia, 1.55 µM; in the test on K-562 leukemia it was > 100 µM; in the test on ACHN renal it was > 100 µM. In the test on OVCAR-8 ovarian, the TGI was > 100 µM.

With `CN(C)c1ccc(/C=C/c2ccnc3ccc4ccccc4c23)cc1`, the TGI in the test on SF-268 CNS, with COLO 205 colon, in the test on HL-60(TB) leukemia, in the test on RPMI-8226 leukemia, in the test on T-47D breast and with K-562 leukemia was > 100 µM each time. For the same compound, the TGI in the test on ACHN renal was 57.3 µM; in the test on OVCAR-8 ovarian it was > 100 µM.

Turning to `Nc1c(S(=O)(=O)O)cc(Nc2cccc(S(N)(=O)=O)c2)c2c1C(=O)c1ccccc1C2=O`, the TGI in the test with SF-268 CNS, with COLO 205 colon, in the test on HL-60(TB) leukemia, in the test on RPMI-8226 leukemia, in the test on T-47D breast and in the test on K-562 leukemia was > 100 µM throughout. For the same compound, the TGI in the test on ACHN renal and with OVCAR-8 ovarian was > 100 µM in each case.

As for `COc1cc(/C=C2\CCCC3C2=Nc2ccccc2NC3c2cc(OC)c(OC)c(OC)c2)cc(OC)c1OC` (stereo not given), the GI50 in the test with SF-268 CNS is 2.02 µM; in the test on COLO 205 colon, 2.59 µM; in the test with HL-60(TB) leukemia it was 2.44 µM; in the test on RPMI-8226 leukemia it was 0.389 µM; with T-47D breast, 3.75 µM; with K-562 leukemia, 2.1 µM. In addition, the GI50 with ACHN renal is 1.66 µM; in the test on OVCAR-8 ovarian, 0.4 µM. Moreover, the TGI in the test with SF-268 CNS came out at 71.5 µM; in the test on COLO 205 colon it was 6.29 µM; in the test on HL-60(TB) leukemia, 4.97 µM; in the test with RPMI-8226 leukemia, 2.4 µM; in the test with T-47D breast, 52.7 µM; in the test on K-562 leukemia it was 10.3 µM. Also, the results for the TGI in the test on ACHN renal and in the test with OVCAR-8 ovarian were 3.57 µM and 42.9 µM, respectively.

As to `COc1cc(-c2nc(-c3nnc(-c4ccc(F)c(Cl)c4)o3)c3ccccn23)cc(OC)c1OC`, the GI50 in the test on SF-268 CNS is 2.03 µM; in the test on COLO 205 colon it was 4.68 µM; in the test on RPMI-8226 leukemia, 1.79 µM; with K-562 leukemia, 4.34 µM; in the test on OVCAR-8 ovarian, 1.69 µM. In addition, the TGI with SF-268 CNS was 5.48 µM; with COLO 205 colon, > 100 µM; in the test with RPMI-8226 leukemia, 5.65 µM; in the test on K-562 leukemia it was > 100 µM; in the test with OVCAR-8 ovarian, 4.44 µM.

In the case of `CCCCCCCCCCCCOC1C(CNCC2OC3OC(C)(C)OC3C2NC(=O)Nc2ccc(C(F)(F)F)cc2)OC2OC(C)(C)OC21` (stereo not given), the GI50 was 7.93 µM in the test on SF-268 CNS; 3.26 µM in the test on COLO 205 colon; 0.0134 µM with HL-60(TB) leukemia; 7.06 µM in the test with RPMI-8226 leukemia; 7.31 µM in the test on T-47D breast; 0.0327 µM in the test on K-562 leukemia. Also, the results for the GI50 in the test with ACHN renal and in the test with OVCAR-8 ovarian were 7.05 µM and 6.81 µM, respectively. The TGI worked out at 16.6 µM in the test with SF-268 CNS; 7.32 µM with COLO 205 colon; 0.364 µM in the test with HL-60(TB) leukemia; 18.7 µM in the test with RPMI-8226 leukemia; 16.9 µM in the test on T-47D breast; 2.62 µM in the test with K-562 leukemia. In addition, the TGI came out at 14 µM in the test with ACHN renal and 18.1 µM in the test on OVCAR-8 ovarian.
